Assays:
[1] = molecular target: γ-secretase enzyme complex (Homo sapiens, UniProt P49768)
Procedure: Multiple in vitro assays were utilized to characterize the potency and selectivity of compound (1). The primary in vitro assay uses cell-free membrane preparations to provide the -secretase enzyme complex as an in vitro assay. […] The cellular processing of APP is measured using an ELISA-based readout. HEK293 cells have been engineered to over-express APP. Processing is measured by an ELISA-based quantitation of the A 1-40 secretase product. Cellular Notch inhibitory activity is measured using HEK293 cell line stably expressing a truncated human Notch 1 fused in its intracellular domain to a VP16/[…] transcriptional activator, which drives a firefly luciferase gene Inhibition of Notch processing produces a reduction in luciferase reporter activity as measured by its chemo luminescence.

[2] = test system: AsPC1 human pancreatic carcinoma xenografts; experiment: Antitumor efficacy in AsPC1 pancreatic xenografts in nude mice; format: in vivo
Procedure: Female (athymic nu/nu) nude mice were obtained from Charles River Laboratories (Wilmington, Mass.), while female SCID-beige mice were purchased from Taconic (Germantown, N.Y.). Mice were used when they were approximately 8-12 weeks old (nudes) or 8-10 weeks old (SCID-beige), and weighed approximately 23-25 grams. The health of all animals was determined daily by gross observation of experimental animals and by the analyses of blood samples of sentinel animals that were housed on the shared shelf racks. All animals were allowed to acclimate and recover from any shipping related stress for a minimum of 72 hours prior to experimental use. Autoclaved water and irradiated food [5058-ms Pico chow (mouse) Purina, Richmond, Ind.] were provided ad libitum, and the animals were maintained on a 12 hour light and dark cycle. Cages, bedding and water bottles were autoclaved before use and were changed weekly. MiaPaca2, AsPC1 and BxPC3 human pancreatic carcinoma cells were purchased from ATCC (Manassas, Va.). BxPC3 and AsPC1 cells were grown in RPMI medium and MiaPaca2 cells were grown in Dulbecco's Modified Essential Medium (DMEM). All culture media were supplemented with 10% (v/v) FBS and 1% (v/v) […]. […] SCID-biege mice were implanted se with 5×10^6 BxPC3 cells in a 1:1 mixture of matrigel:PBS in a volume of 0.2 ml per mouse in the right hind flank on May 22, 2007. […] Formulated compound and vehicle were stored at 4° C. and prepared weekly. The suspension was mixed vigorously prior to administration. Gemcitabine (Gemzar®, Eli Lilly and Company, Indianapolis, Ind., USA) was reconstituted with sterile saline to yield a stock solution of 38 mg/ml for the entire 3-4 week study. […] Nude mice implanted with MiaPaca2 or AsPC1 xenografts were randomized on day 17 and day 9 post cell implant, respectively. SCID-beige mice bearing BxPC3 xenografts were randomized 8 days post implant. […] Treatment for the MiaPaca2 study began on Feb. […] For the MiaPaca2 and AsPC1 studies, qd Compound (1) suspension or q3d gemcitabine treatment ended on day 37 post tumor cell implant, whereas for the BxPC3 study, qd Compound (1) suspension or q3d gemcitabine treatment ended on day 35 post tumor cell implant. For intermittent dosing of Compound (1) suspension in the AsPC1 study using the 7+/7− schedule×2 cycles, treatment ended on day 15, was reinitiated on day 23, and finally ended day 29. For intermittent dosing using the 3+/4− schedule×4 cycles, treatment ended on day 11, was reinitiated on day 16, ended day 18, was reinitiated on day 23, ended day 25, was reinitiated day 30, and finally ended on day 32. In the first combination group, daily Compound (1) was given simultaneously with q3d gemcitabine for a total of four weeks. For the remaining combination groups, Compound (1) and gemcitabine were given sequentially rather than simultaneously. In group 8 gemcitabine was dosed q3d during the 1st and 3rd weeks, whereas Compound (1) was given daily during the 2nd and 4th weeks only. In group 9, the order of compound dosing was reversed, with Compound (1) suspension given daily during the 1st and 3rd weeks, whereas gemcitabine was given q3d during the 2nd and 4th weeks. In group 10, gemcitabine was dosed q3d during the 1st and 2nd weeks, whereas Compound (1) was given daily during the 3rd and 4th weeks. In group 11, the order of compound dosing was reversed, with Compound (1) given daily during the 1st and 2nd weeks, and gemcitabine dosed q3d for the 3rd and 4th weeks. […]

Compound: CC(C)(C(=O)NCC(F)(F)C(F)(F)F)C(=O)N[C@@H]1C(=O)Nc2ccccc2-c2ccccc21 [Compound (1), 2,2-Dimethyl-N—((S)-6-oxo-6,7-dihydro-5H-dibenzo[b,d]azepin-7-yl)-N′-(2,2,3,3,3-pentafluoro-propyl)-malonamide]
- IC50 in cellular and cell-free assays [1]: low nanomolar range
- % TGI ([2]; 3 mg/kg po qd × 28 days, day 37): 49%
- % TGI ([2]; 10 mg/kg po qd × 28 days, day 37): 58%
- % TGI ([2]; 10 mg/kg po, 3+/4− × 4 cycles): 32%
- % TGI ([2]; 10 mg/kg po, 7+/7− × 2 cycles): 41%
